This note sets out measurements from ChEMBL document CHEMBL1770109, “SAR studies of pyridazinone derivatives as novel glucan synthase inhibitors” (Bioorg Med Chem Lett, 2011).

Converted amounts (≈) assume the structure as drawn.

Broadly, the AUC(0-t) is exposure summed from dosing to a finite time, without extrapolation to infinity. By IC50 is commonly meant the midpoint of a concentration-inhibition curve. Read a low IC50 as greater potency in that assay. Usually MIC50 stands for the lowest concentration that inhibits either 50% of growth or 50% of the strains tested, depending on the study. Higher therefore signals weaker potency.

Series [1] deals with Nakaseomyces glabratus. Description: Antifungal activity against Candida glabrata C624. It is filed as functional. The following applies: read-out: MIC100.
Series [2] has as its system Candida albicans. Description: Antifungal activity against Candida albicans C693. Particulars: for MIC: read-out: MIC100. It is filed as functional.
A short description of series [3]: AUC (0 to 6 hrs) in rat at 10 mg/kg, po. It is filed as ADME, organism-based. Details: time < 6 hr, dose 10 mg/kg, route oral. The following applies: plasma.
Series [4] has as its target Beta-1,3-glucan synthase (Candida albicans, UniProt O13428). Description: Inhibition of Candida albicans BWP17 1,3-beta-glucan synthase.

Chain of Beta-1,3-glucan synthase (O13428 whole entry): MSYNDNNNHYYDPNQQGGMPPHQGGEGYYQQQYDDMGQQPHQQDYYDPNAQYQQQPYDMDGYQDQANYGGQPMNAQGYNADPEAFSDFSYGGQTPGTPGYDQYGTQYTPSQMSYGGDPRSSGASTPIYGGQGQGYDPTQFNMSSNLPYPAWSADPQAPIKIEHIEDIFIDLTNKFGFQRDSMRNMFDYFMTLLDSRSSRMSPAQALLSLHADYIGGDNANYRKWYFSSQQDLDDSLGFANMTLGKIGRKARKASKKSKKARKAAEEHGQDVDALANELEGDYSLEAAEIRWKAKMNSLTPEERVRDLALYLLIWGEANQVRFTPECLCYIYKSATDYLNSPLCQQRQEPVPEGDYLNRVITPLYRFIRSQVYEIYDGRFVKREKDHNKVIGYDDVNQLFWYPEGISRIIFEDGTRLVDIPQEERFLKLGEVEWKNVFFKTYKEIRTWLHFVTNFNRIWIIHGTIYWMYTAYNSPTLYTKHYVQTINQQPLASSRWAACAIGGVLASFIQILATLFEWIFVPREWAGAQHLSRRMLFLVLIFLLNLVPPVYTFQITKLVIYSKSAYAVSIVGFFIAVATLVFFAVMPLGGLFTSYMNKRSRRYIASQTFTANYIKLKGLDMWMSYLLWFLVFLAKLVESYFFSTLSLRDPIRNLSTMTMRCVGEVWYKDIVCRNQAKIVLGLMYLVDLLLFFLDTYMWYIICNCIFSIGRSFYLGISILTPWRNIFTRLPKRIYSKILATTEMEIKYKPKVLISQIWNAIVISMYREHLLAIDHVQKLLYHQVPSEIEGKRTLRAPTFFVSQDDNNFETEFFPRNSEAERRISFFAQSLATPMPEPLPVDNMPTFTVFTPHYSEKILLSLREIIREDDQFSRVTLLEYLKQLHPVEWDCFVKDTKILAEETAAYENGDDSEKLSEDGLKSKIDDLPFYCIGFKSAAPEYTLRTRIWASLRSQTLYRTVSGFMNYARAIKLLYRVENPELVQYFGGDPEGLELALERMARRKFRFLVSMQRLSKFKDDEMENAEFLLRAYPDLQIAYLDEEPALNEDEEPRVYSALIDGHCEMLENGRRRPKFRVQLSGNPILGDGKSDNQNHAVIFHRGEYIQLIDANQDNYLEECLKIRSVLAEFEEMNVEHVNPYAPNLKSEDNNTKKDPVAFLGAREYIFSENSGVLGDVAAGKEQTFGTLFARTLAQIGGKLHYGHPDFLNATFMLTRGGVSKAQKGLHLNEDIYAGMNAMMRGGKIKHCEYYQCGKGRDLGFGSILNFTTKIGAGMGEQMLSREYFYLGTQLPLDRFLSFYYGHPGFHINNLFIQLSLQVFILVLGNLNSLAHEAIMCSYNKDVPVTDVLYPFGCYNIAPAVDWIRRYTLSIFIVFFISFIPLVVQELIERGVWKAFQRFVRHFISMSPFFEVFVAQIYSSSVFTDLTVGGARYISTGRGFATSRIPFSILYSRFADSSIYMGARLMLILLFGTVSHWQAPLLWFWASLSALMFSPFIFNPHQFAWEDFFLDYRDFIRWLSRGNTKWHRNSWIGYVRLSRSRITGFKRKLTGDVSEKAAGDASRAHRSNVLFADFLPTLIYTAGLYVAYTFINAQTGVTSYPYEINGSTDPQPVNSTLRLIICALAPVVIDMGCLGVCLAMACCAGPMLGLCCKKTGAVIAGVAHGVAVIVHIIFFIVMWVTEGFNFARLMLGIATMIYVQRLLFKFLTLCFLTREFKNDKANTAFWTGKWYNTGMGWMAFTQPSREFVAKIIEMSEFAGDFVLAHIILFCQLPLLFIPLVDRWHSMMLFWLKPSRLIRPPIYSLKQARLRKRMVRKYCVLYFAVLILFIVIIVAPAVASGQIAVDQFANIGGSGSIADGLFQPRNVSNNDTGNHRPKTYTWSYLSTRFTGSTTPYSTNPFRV

Turning to `O=C(O)c1ccc(CS(=O)(=O)N2CCN(c3cnn(-c4cccc(Cl)c4)c(=O)c3OC3CCCC3)CC2)cc1`, the values for the MIC in series [1] and in series [2] were 25 µg/mL (≈ 43.6 µM) and greater than 50 µg/mL, respectively. Moreover, the exposure AUC(0-t) at 6 h in series [3] is 130 ng·h/mL.

Turning to `Nc1cccc(CS(=O)(=O)N2CCN(c3cnn(-c4cccc(Cl)c4)c(=O)c3OC3CCCC3)CC2)c1`, the MIC came out at 0.39 µg/mL (≈ 0.717 µM) in series [1] and 3.13 µg/mL (≈ 5.75 µM) in series [2]. Further, the AUC(0-t) at 6 h in series [3] came to 50 ng·h/mL.

For `O=c1c(OC2CCCC2)c(N2CCN(S(=O)(=O)c3ccc4ccccc4c3)CC2)cnn1-c1cccc(Cl)c1`, the IC50 in series [4] was 131 nM. The MIC in series [1] was 1.04 µg/mL (≈ 1.84 µM); in series [2], 33.4 µg/mL (≈ 59.1 µM).

As for `O=c1c(OC2CCCC2)c(N2CCN(S(=O)(=O)C3CCCC3)CC2)cnn1-c1cccc(Cl)c1`, it took 1220 nM to reach half-maximal inhibition in series [4] (IC50). Moreover, the figures for the MIC in series [1] and in series [2] were 0.1 µg/mL (≈ 0.197 µM) and 3.13 µg/mL (≈ 6.17 µM), respectively.

Consider `O=c1c(OC2CCCC2)c(N2CCN(S(=O)(=O)c3ccccc3)CC2)cnn1-c1cccc(Cl)c1`, for which the results for the MIC in series [1] and in series [2] were 0.3 µg/mL (≈ 0.582 µM) and 3.1 µg/mL (≈ 6.02 µM), respectively.

In the case of `CCCCCCc1c(N2CCN(S(=O)(=O)Cc3ccccc3)CC2)ncn(-c2cccc(Cl)c2)c1=O`, the IC50 in series [4] was 2480 nM. In addition, in series [2], the MIC50 is 9 µg/mL (≈ 17 µM) and the MIC is greater than 25 µg/mL.

In series [4], `CCOCCOc1nn(-c2ccccc2)c(=O)c(OCCOCC)c1N1CCN(S(=O)(=O)Cc2ccccc2)CC1` gave an IC50 of 7160 nM. In addition, the MIC is 6.25 µg/mL (≈ 10.7 µM) in series [1] and greater than 50 µg/mL in series [2].

`O=c1c(-c2ccc(F)cc2)c(N2CCN(S(=O)(=O)Cc3ccccc3)CC2)ccn1-c1ccccc1`: the IC50 in series [4] is 4770 nM. For the same compound, the values for the MIC in series [1] and in series [2] were 0.78 µg/mL (≈ 1.55 µM) and greater than 50 µg/mL, respectively.

As for `O=c1c(OC2CCCC2)c(N2CCN(S(=O)(=O)Cc3noc4ccccc34)CC2)cnn1-c1cccc(Cl)c1`, inhibition in series [4] was half-maximal at 140 nM (IC50). Besides, the MIC amounted to 0.05 µg/mL (≈ 0.0877 µM) in series [1] and 0.78 µg/mL (≈ 1.37 µM) in series [2].

As for `O=c1c(-c2ccc(F)cc2)c(N2CCN(S(=O)(=O)Cc3ccccc3)CC2)cnn1-c1ccccc1`, the MIC was found to be 0.05 µg/mL (≈ 0.0991 µM) in series [1] and 6.25 µg/mL (≈ 12.4 µM) in series [2].

`Nc1ccccc1CS(=O)(=O)N1CCN(c2cnn(-c3cccc(Cl)c3)c(=O)c2OC2CCCC2)CC1`: the MIC in series [1] was 0.03 µg/mL (≈ 0.0551 µM); in series [2], 0.35 µg/mL (≈ 0.643 µM). The AUC(0-t) at 6 h in series [3] was 290 ng·h/mL.

For `CCOCCOc1c(N2CCN(S(=O)(=O)Cc3ccccc3)CC2)cnn(-c2ccccc2)c1=O`, inhibition in series [4] was half-maximal at 1810 nM (IC50). Further, the MIC in series [1] is 0.1 µg/mL (≈ 0.201 µM); in series [2] it was 3.13 µg/mL (≈ 6.28 µM).

For the compound `CC(C)(C)S(=O)(=O)N1CCN(c2cnn(-c3cccc(Cl)c3)c(=O)c2OC2CCCC2)CC1`, it took 828 nM to reach half-maximal inhibition in series [4] (IC50). Moreover, the MIC in series [1] was determined as 0.1 µg/mL (≈ 0.202 µM). The MIC50 in series [2] turned out to be 0.78 µg/mL (≈ 1.58 µM).

In the case of `Cn1ccc2ccc(S(=O)(=O)N3CCN(c4cnn(-c5cccc(Cl)c5)c(=O)c4OC4CCCC4)CC3)cc21`, the IC50 in series [4] was 282 nM. The MIC in series [1] is 0.2 µg/mL (≈ 0.352 µM). Besides, in series [2], the MIC50 was determined as 0.78 µg/mL (≈ 1.37 µM).

Take `O=c1c(OC2CCCC2)c(N2CCN(S(=O)(=O)CCCc3ccccc3)CC2)cnn1-c1cccc(Cl)c1`: half-maximal inhibition in series [4] (IC50) required 41300 nM. In addition, the MIC in series [1] is 3.13 µg/mL (≈ 5.62 µM); in series [2], greater than 50 µg/mL.

Regarding `N#Cc1ccc(CS(=O)(=O)N2CCN(c3cnn(-c4cccc(Cl)c4)c(=O)c3OC3CCCC3)CC2)cc1`, the MIC was found to be 0.02 µg/mL (≈ 0.0361 µM) in series [1] and 0.13 µg/mL (≈ 0.235 µM) in series [2].

Take `O=c1c(OC2CCCC2)c(N2CCN(S(=O)(=O)Cc3ccccc3)CC2)cnn1-c1cccc(Cl)c1`: the half-maximal inhibitory concentration (IC50) in series [4] was 378 nM. The MIC in series [1] amounted to 0.02 µg/mL (≈ 0.0378 µM); in series [2], 0.39 µg/mL (≈ 0.737 µM).

As for `O=c1c(OC2CCCC2)c(N2CCN(S(=O)(=O)CCc3ccccc3)CC2)cnn1-c1cccc(Cl)c1`, the IC50 in series [4] is 1470 nM. Besides, the MIC came to 0.08 µg/mL (≈ 0.147 µM) in series [1] and 5 µg/mL (≈ 9.21 µM) in series [2].

In series [4], `O=c1c(OC2CCCC2)c(N2CCN(S(=O)(=O)Cc3ccsc3)CC2)cnn1-c1cccc(Cl)c1` showed a half-inhibitory concentration (IC50) of 411 nM. The MIC was found to be 0.02 µg/mL (≈ 0.0374 µM) in series [1] and 2.1 µg/mL (≈ 3.92 µM) in series [2].

In series [4], `O=c1c(OC2CCCC2)c(N2CCN(S(=O)(=O)C3Cc4ccccc4C3)CC2)cnn1-c1cccc(Cl)c1` gave an IC50 of 522 nM. Further, the MIC in series [1] worked out at 0.1 µg/mL (≈ 0.18 µM); in series [2] it was 1.56 µg/mL (≈ 2.81 µM).

With `O=c1c(OC2CCCC2)c(N2CCN(S(=O)(=O)Cc3ccc(F)cc3)CC2)cnn1-c1cccc(Cl)c1`, the results for the MIC in series [1] and in series [2] were 0.05 µg/mL (≈ 0.0914 µM) and 1.56 µg/mL (≈ 2.85 µM), respectively.

Regarding `CCOCCOc1c(N2CCN(S(=O)(=O)Cc3ccccc3)CC2)c(C)nn(-c2ccccc2)c1=O`, the IC50 in series [4] was 139000 nM. Also, the MIC is 25 µg/mL (≈ 48.8 µM) in series [1] and greater than 50 µg/mL in series [2].

Turning to `Cc1ccc(CS(=O)(=O)N2CCN(c3cnn(-c4cccc(Cl)c4)c(=O)c3OC3CCCC3)CC2)cc1`, the MIC in series [1] stood at 0.08 µg/mL (≈ 0.147 µM); in series [2], 0.31 µg/mL (≈ 0.571 µM).

In the case of `O=c1c(OC2CCCC2)c(N2CCN(S(=O)(=O)Cc3cccc(B(O)O)c3)CC2)cnn1-c1cccc(Cl)c1`, the MIC worked out at 0.42 µg/mL (≈ 0.733 µM) in series [1] and 13.4 µg/mL (≈ 23.4 µM) in series [2].

As to `O=c1c(OC2CCCC2)c(N2CCN(S(=O)(=O)Cc3cccc(C(F)(F)F)c3)CC2)cnn1-c1cccc(Cl)c1`, the values for the MIC in series [1] and in series [2] were 0.78 µg/mL (≈ 1.31 µM) and greater than 50 µg/mL, respectively.

`O=C(O)CCS(=O)(=O)N1CCN(c2cnn(-c3cccc(Cl)c3)c(=O)c2OC2CCCC2)CC1`: in series [4], the IC50 is 214000 nM. For the same compound, the MIC in series [1] and in series [2] was greater than 50 µg/mL in each case.

`CCOCCOc1cc(-c2ccccc2)nnc1N1CCN(S(=O)(=O)Cc2ccccc2)CC1`: half-maximal inhibition in series [4] (IC50) required 76700 nM. In addition, the MIC in series [1] and in series [2] was greater than 25 µg/mL each time.

As for `O=c1c(OC2CCCC2)c(N2CCN(S(=O)(=O)Cc3ccc([N+](=O)[O-])cc3)CC2)cnn1-c1cccc(Cl)c1`, the figures for the MIC in series [1] and in series [2] were 0.05 µg/mL (≈ 0.0871 µM) and 0.78 µg/mL (≈ 1.36 µM), respectively.

With `CCOC(=O)c1ccc(CS(=O)(=O)N2CCN(c3cnn(-c4cccc(Cl)c4)c(=O)c3OC3CCCC3)CC2)cc1`, the MIC in series [1] is 0.78 µg/mL (≈ 1.3 µM); in series [2], 6.25 µg/mL (≈ 10.4 µM).

In the case of `COCCS(=O)(=O)N1CCN(c2cnn(-c3cccc(Cl)c3)c(=O)c2OC2CCCC2)CC1`, it took 865 nM to reach half-maximal inhibition in series [4] (IC50). Besides, the MIC came out at 0.2 µg/mL (≈ 0.402 µM) in series [1] and 3.13 µg/mL (≈ 6.3 µM) in series [2].

`CCOCCOc1cc(-c2ccccc2)ccc1N1CCN(S(=O)(=O)Cc2ccccc2)CC1` showed an IC50 in series [4] of 287000 nM. In addition, the MIC in series [1] and in series [2] was greater than 50 µg/mL in each case.

Consider `O=c1c(OC2CCCC2)c(N2CCN(S(=O)(=O)Cc3ccncc3)CC2)cnn1-c1cccc(Cl)c1`, for which the MIC was less than 0.02 µg/mL in series [1] and 0.2 µg/mL (≈ 0.377 µM) in series [2]. This compound also yielded an area under the curve AUC(0-t) at 6 h in series [3] of 60 ng·h/mL.

As to `Nc1ccc(CS(=O)(=O)N2CCN(c3cnn(-c4cccc(Cl)c4)c(=O)c3OC3CCCC3)CC2)cc1`, the figures for the MIC in series [1] and in series [2] were 0.2 µg/mL (≈ 0.368 µM) and 0.78 µg/mL (≈ 1.43 µM), respectively. The compound further yielded an AUC(0-t) at 6 h in series [3] of 80 ng·h/mL.

Take `O=c1c(OC2CCCC2)c(N2CCN(S(=O)(=O)c3ccsc3)CC2)cnn1-c1cccc(Cl)c1`: 806 nM corresponded to half-maximal inhibition in series [4] (IC50). The MIC in series [1] came out at 0.05 µg/mL (≈ 0.096 µM); in series [2], 0.78 µg/mL (≈ 1.5 µM).
